In data set [1] the test system is K-Ras^LSL/+/Pten^fl/fl ovarian cancer. The experiment in a line: Efficacy study of PI103-SNPs in murine ovarian cancer tumor model. In kind it is in vivo, mice. Conditions: after 3 doses, 5 mg/kg. Here is the method:
Ovarian adenocarcinomas were induced in genetically engineered K-Ras^LSL/+/Pten^fl/fl mice via intrabursal delivery of adenovirus-carrying Cre recombinase. Tumor cells were also engineered to express luciferase once activated by Adeno-Cre to make tumor imaging possible before and after drug treatment. Once mice developed medium to large tumors, they were placed into one of four treatment groups (vehicle, Free-PI-103 5 mg/kg, PI-103-SNP 5 mg/kg, and iRGD-PI103-SNP 5 mg/kg) and all drugs were administered via tail vein injection. Tumor imaging in vivo was performed using an 1VIS Lumina II Imaging System. Quantification of bioluminescence was achieved by using Living Image Software 3.1 (Caliper Life Sciences). Images were taken a day prior to initial treatment (day 0, baseline image), after 3 treatments, and 1 d after 5 treatments.
Ovarian adenocarcinomas were induced in genetically engineered K-ras isu+/Pten mice via intrabursal delivery of adenovirus-carrying Cre recombinase. Tumor cells were also engineered to express luciferase once activated by Adeno-Cre to make tumor imaging possible before and after drug treatment. […] Quantification of bioluminescence was achieved by using Living Image Software 3.1™ (Caliper Life Sciences). […]

Data set [2] in a line: Insulin tolerance test using PI103-SNPs. In kind it is in vivo, mice (murine 4T1 breast cancer model). Conditions: 5 mg/kg single dose, insulin 0.75 U/kg 1 hour later, glucose 45 min after insulin. Here is the method: Random fed mice (murine 4T1 breast cancer model) were injected with a single dose of Empty nanoparticles (Control), Free PI-103 (5 mg/kg) and PI103-SNPs via tail vain injections. Freshly prepared Insulin solution (0.75 U/Kg) in 0.1 ml 0.9% NaCl was injected intraperitoneally to mice 1 hour after the drug administration. The blood glucose levels were measured before and 45 min after the insulin injections using glucometer.

As to `Oc1cccc(-c2nc(N3CCOCC3)c3oc4ncccc4c3n2)c1` [PI103], in data set [1], the tumor luciferase bioluminescence entry is “significant tumor regression as compared to vehicle control”. In data set [2], the “blood glucose level after insulin injection” value is recorded as “only a minor decrease in blood glucose level”.

For the origin of these results see patent US10300143B2, “Compositions for treating cancer and methods for making the same” (THE BRIGHAM AND WOMEN'S HOSPITAL, INC., priority 2012, dated 2019).
